Results: patent US20260345723A1, “Treatments for Opioid-Induced Respiratory Depression” (priority 2023, published 2026)
Like-named read-outs stand apart in the source and are kept apart here.

Assays:
[1] = system: mu-opioid receptor (OPRM1)
[2] = assay type: in vivo, rodents and non-human primates (Rhesus macaque)
CCR5 [3] = system: CCR5
pain pathways = conditions: cited from earlier work
[4] = system: heroin self-administration; assay: Heroin intravenous self-administration (FR and PR); assay type: in vivo, rat (male Sprague Dawley); conditions: RAP-103 1 mg/kg IP
Excerpt: (§1) Adult male Sprague Dawley (226-275 g) were purchased from Taconic Laboratories and maintained on a 12-hour/12-hour light/dark cycle with the lights off at 9:30 a.m. in a temperature- and humidity-controlled animal care facility. For the duration of the experiment, rats were housed two per cage and given unrestricted access to food and water at all times when in the home cage.
Rats were anesthetized using vaporized isoflurane delivered via nebulizer. An indwelling silastic catheter was threaded subcutaneously over the shoulder blade, inserted in the jugular vein and sutured in place. The catheter routed to a cotton back mount platform that was sutured below the skin between the shoulder blades. Post-operation, catheters were flushed daily with 0.2 ml of timentin (0.93 mg/mL) dissolved in heparinized saline and covered with magnetic aluminum caps.
Following 5 days of post-operative recovery, rats began daily intravenous self-administration of heroin in Med-Associates operant chambers for at least 10 d. […] During IVSA, infusions of 0.1 mg/kg/inf heroin were rewarded to the animal after pressing the active lever. […]
Progressive ratio (PR) schedules of drug delivery are used to determine the ‘motivational’ state of an animal and drug reinforcing efficacy. […] BP is a dependent measure used to quantify the degree to which the subject will work to get the next administration of the drug which serves as a reinforcer in the self-administration paradigm. […]
Respiratory depression data were analyzed by two-way ANOVA (RAP-103 pretreatment×morphine treatment) followed by a Bonferroni's multiple comparison test. Physical dependence data were analyzed by a Student's t-test. Self-administration (SA) time-course data for heroin and sucrose were analyzed by two-way ANOVA (RAP-103 treatment x day) followed by a Bonferroni's multiple comparison test. SA PR challenge data were analyzed by a Student's t-test. Protein and mRNA data were analyzed by two-way ANOVA (RAP-103 pretreatment x morphine treatment) followed by a Newman-Keuls post-hoc analysis. […]

[5] = system: morphine-induced respiratory depression
CCR8 [6] = conditions: cited from earlier work
CCR8 [7] = conditions: mechanism involving CCR8; cited from earlier work
[8] = system: morphine physical dependence; assay: Morphine physical dependence (naloxone-precipitated withdrawal signs); assay type: in vivo, rat (male Sprague Dawley)
Procedure: as §1
Rats were implanted (SC, flank area) with 75 mg morphine pellets that remained intact for 7 days. Beginning on the day of pellet implantation, rats received daily injections of saline or RAP-103 (0.001, 0.1 or 1 mg/kg, IP, delivered in […]) throughout chronic morphine exposure. On the test day, rats were transported to the testing room and allowed to acclimate for 60 min before naloxone hydrochloride (10 mg/kg, IP, delivered in a 1 ml/kg volume) was injected to precipitate withdrawal signs. Immediately after naloxone administration, rats were placed into individual observation boxes and observed for 60 min. A modified version of the Gellet-Holtzman scale was used to grade withdrawal signs. Wet dog shakes, teeth chattering, eye blinks, and paw tremor were evaluated as the number of qualitatively observed occurrences over the 60-min test time.
Respiratory depression data were analyzed by two-way ANOVA (RAP-103 pretreatment×morphine treatment) followed by a Bonferroni's multiple comparison test. Physical dependence data were analyzed by a Student's t-test. Self-administration (SA) time-course data for heroin and sucrose were analyzed by two-way ANOVA (RAP-103 treatment x day) followed by a Bonferroni's multiple comparison test. SA PR challenge data were analyzed by a Student's t-test. Protein and mRNA data were analyzed by two-way ANOVA (RAP-103 pretreatment x morphine treatment) followed by a Newman-Keuls post-hoc analysis. In all cases, P<0.05 was considered statistically significant.

[9] = assay type: in vivo, Rhesus macaque (Macaca mulatta); conditions: seven days
[10] = assay type: in vivo, rats and guinea pigs
CCR5 [11] = conditions: cited from earlier work
[12] = RAP-103 pretreatment 1 mg/kg IP + morphine, P<0.05
[13] = RAP-103 only vs drug-naïve, P>0.05
[14] = RAP-103 1, 3 mg/kg IP in morphine-naïve rats vs saline, P>0.05
[15] = RAP-103 1 or 3 mg/kg IP 30 min before morphine 5 mg/kg SC, 60 min
[16] = RAP-103 0.001, 0.1 mg/kg IP, P>0.05, reduced trend

Substance: D-Thr-D-Thr-D-Asn-D-Tyr-D-Thr [RAP-103]
- GFAP mRNA, PFC (GFAP mRNA; RAP-103/morphine exposure, P>0.05): significant changes in GFAP or IBA1 were not detected
- GFAP gene expression, NAC (GFAP mRNA; RAP-103 pretreatment + morphine, P<0.05): normalized the augmentation in GFAP gene expression
- GFAP mRNA levels, VTA (GFAP mRNA; RAP-103 pretreatment, morphine-naïve and morphine-treated rats, vs drug-naïve, P<0.05): significantly reduced GFAP mRNA levels
- OPRM1 protein levels, PFC ([1]; RAP-103 + morphine, vs drug-naïve (P<0.01) and morphine only (P<0.05)): significantly elevated
- OPRM1 protein levels, VTA [1, 12]: normalized the morphine-induced enhancement in OPRM1 levels
- brain entry, oral compared to IV dosing ([2]; FIG. 10A): preferentially entered the brain by oral compared to IV dosing
- brain entry ([2]; oral and IV dosing, rodents and non-human primates): quickly entered the brain
- CCR5 protein levels, NAC (CCR5 [3]; [13]): did not display significantly different levels
- CCR5 protein levels, VTA (CCR5 [3]; [13]): not significantly different
- CCR5 protein levels, NAC (CCR5 [3]; [12]): normalized morphine-induced deficits in CCR5 levels
- CCR5 protein levels, PFC (CCR5 [3]; rats receiving RAP-103 vs drug-naïve, P<0.05): lower CCR5 levels
- monocyte infiltration (pain pathways): reduces
- spinal microglial activation (pain pathways): reduces
- CXCR4 protein levels, VTA (CXCR4; RAP-103 1 mg/kg IP + morphine): did not alter morphine enhancement of CCR2 or CXCR4
- CXCR4 protein levels, NAC (CXCR4; [13]): did not display significantly different levels
- CXCR4 protein levels, VTA (CXCR4; [13]): not significantly different
- responding on the inactive lever [4]: did not impact responding on the inactive lever
- heroin PR breakpoint ([4]; PR challenge, P<0.05 vs saline): significantly lower breakpoints
- active lever responding (heroin SA, FR-1) ([4]; heroin 0.1 mg/kg/inf, days 8 (P<0.05), 9 and 10 (P<0.001)): significantly reduced active lever responding
- respiratory rate ([5]; RAP-103 1 mg/kg IP before morphine 5 mg/kg SC): abolished
- cumulative respiratory rate ([5]; RAP-103 3 mg/kg IP before morphine 5 mg/kg SC, 60 min, P<0.01): normalized the morphine-induced increase in respiratory rate
- SpO2, RAP-103 by itself [5, 14]: did not produce effects on SpO2
- respiratory rate, RAP-103 by itself [5, 14]: did not produce effects on respiratory rate
- oxygen saturation (FIGS. 1A-1B) [5, 15]: prevented the deficit in oxygen saturation
- respiratory rate (FIGS. 2A-2B) [5, 15]: prevented the increase in respiratory rate
- inhibition of chemokine ligand binding, CCR8 (CCR8 [6]): at least partially inhibits
- microglial chemotaxis (CCR8 [7]): inhibit
- microglial morphological change (CCR8 [7]): inhibit
- naloxone-precipitated eye blinking [8, 16]: did not significantly impact
- naloxone-precipitated wet dog shakes [8, 16]: did not significantly impact
- reduction of frequency of wet dog shakes ([8]; RAP-103 1 mg/kg IP daily, morphine 75 mg pellet 7 d, naloxone 10 mg/kg IP, P<0.01): approximately 43%
- reduction of frequency of eye blinking ([8]; RAP-103 1 mg/kg IP daily, morphine 75 mg pellet 7 d, naloxone 10 mg/kg IP, P<0.05): approximately 59%
- paw tremor ([8]; any dose of RAP-103): not affected
- teeth chattering ([8]; any dose of RAP-103): not affected
- acute toxicity [9]: no acute toxicity
- body weights [9]: no RAP-103-related changes
- clinical observations [9]: no RAP-103-related changes
- persistence at therapeutic levels in brain ([10]; IV or oral gavage, rats and guinea pigs (FIG. 10A)): at least 24 hrs
- brain entry compared to plasma levels ([10]; in vivo): preferentially enters the brain
- CCR2 protein levels, VTA (CCR2; RAP-103 1 mg/kg IP + morphine): did not alter morphine enhancement of CCR2
- CCR2 protein levels, PFC (CCR2; RAP-103 by itself vs drug-naïve, P<0.05): reduction in CCR2 protein levels
- CCR2 protein levels, NAC (CCR2; [13]): did not display significantly different levels
- CCR2 protein levels, VTA (CCR2; [13]): not significantly different
- CCR2 protein levels, NAC (CCR2; RAP-103 pretreatment 1 mg/kg IP + morphine, P<0.01): normalized morphine-induced deficits in CCR2 levels
- inhibition of chemokine ligand binding, CCR5 (CCR5 [11]): at least partially inhibits
